Species on record: Rattus norvegicus
Assay: DrugMatrix - Regimen: Daily Repeat
Assay type: toxicity, organism-based, Sprague-Dawley
Parameters: regimen Daily Repeat, gender Male, age 6-8 weeks
Conditions: in vivo, po, route oral GAVAGE, vehicle 100 % WATER; for ABSOLUTE BASOPHIL / ABSOLUTE EOSINOPHIL / ABSOLUTE LYMPHOCYTE / ABSOLUTE MONOCYTE / ABSOLUTE SEGMENTED NEUTROPHIL / BASOPHIL / EOSINOPHIL / ERYTHROCYTE COUNT / HEMATOCRIT / HEMOGLOBIN / LEUKOCYTE COUNT / LYMPHOCYTE / MEAN CORPUSCULAR HEMOGLOBIN / MEAN CORPUSCULAR HEMOGLOBIN CONCENTRATION / MEAN CORPUSCULAR VOLUME / MONOCYTE / NEUTROPHIL / NUCLEATED RED BLOOD CELLS / PLATELET COUNT: tissue Blood; for ALANINE AMINOTRANSFERASE / ALKALINE PHOSPHATASE / ASPARTATE AMINOTRANSFERASE / BLOOD UREA NITROGEN / CARBON DIOXIDE / CHLORIDE / CHOLESTEROL / CREATINE PHOSPHOKINASE / CREATININE / GLUCOSE / LACTATE DEHYDROGENASE / LIPASE / PHOSPHORUS / POTASSIUM / SODIUM / TOTAL BILIRUBIN / TOTAL PROTEIN / URIC ACID: tissue Plasma
[1] = 0 mg/kg, 72 h, dose level Control, time 3 day
[2] = 0 mg/kg, 120 h, dose level Control, time 5 day
[3] = 22 mg/kg, 72 h, dose level Low, time 3 day

## COc1ccc(C(CN(C)C)C2(O)CCCCC2)cc1 (stereo unspecified) [VENLAFAXINE]
[1]
  ABSOLUTE BASOPHIL: 0 CELLS/uL
  ABSOLUTE EOSINOPHIL: 102 CELLS/uL
  ABSOLUTE LYMPHOCYTE: 12758 CELLS/uL
  ABSOLUTE MONOCYTE: 197.17 CELLS/uL
  ABSOLUTE SEGMENTED NEUTROPHIL: 1259.5 CELLS/uL
  BASOPHIL: 0%
  EOSINOPHIL: 0.83%
  ERYTHROCYTE COUNT: 5.3 x10E6/uL
  HEMATOCRIT: 33.47%
  HEMOGLOBIN: 13.12 G/DL
  LEUKOCYTE COUNT: 14.32 x10E3/uL
  LYMPHOCYTE: 89.33%
  MEAN CORPUSCULAR HEMOGLOBIN: 24.8 pg
  MEAN CORPUSCULAR HEMOGLOBIN CONCENTRATION: 39.18 G/DL
  MEAN CORPUSCULAR VOLUME: 63.25 fL
  MONOCYTE: 1.33%
  NEUTROPHIL: 8.5%
  NUCLEATED RED BLOOD CELLS: 0 /100WBC
  PLATELET COUNT: 1313.17 x10E3/uL
  ALANINE AMINOTRANSFERASE: 52.67 u/L
  ALKALINE PHOSPHATASE: 372 u/L
  ASPARTATE AMINOTRANSFERASE: 82.83 u/L
  BLOOD UREA NITROGEN: 15 mg/dL
  CARBON DIOXIDE: 25.67 mmol/L
  CHLORIDE: 102.17 MEQ/L
  CHOLESTEROL: 68.83 mg/dL
  CREATINE PHOSPHOKINASE: 285 u/L
  CREATININE: 0.18 mg/dL
  GLUCOSE: 149.17 mg/dL
  LACTATE DEHYDROGENASE: 263.83 u/L
  LIPASE: 10.17 u/L
  PHOSPHORUS: 12.58 mg/dL
  POTASSIUM: 6.58 MEQ/L
  SODIUM: 144.22 MEQ/L
  TOTAL BILIRUBIN: 0.22 mg/dL
  TOTAL PROTEIN: 5.83 G/DL
  URIC ACID: 1.58 mg/dL
[2]
  ABSOLUTE BASOPHIL: 0 CELLS/uL
  ABSOLUTE EOSINOPHIL: 24 CELLS/uL
  ABSOLUTE LYMPHOCYTE: 11134.17 CELLS/uL
  ABSOLUTE MONOCYTE: 56.33 CELLS/uL
  ABSOLUTE SEGMENTED NEUTROPHIL: 1235.5 CELLS/uL
  BASOPHIL: 0%
  EOSINOPHIL: 0.17%
  ERYTHROCYTE COUNT: 5.68 x10E6/uL
  HEMATOCRIT: 35.72%
  HEMOGLOBIN: 13.93 G/DL
  LEUKOCYTE COUNT: 12.45 x10E3/uL
  LYMPHOCYTE: 89.5%
  MEAN CORPUSCULAR HEMOGLOBIN: 24.63 pg
  MEAN CORPUSCULAR HEMOGLOBIN CONCENTRATION: 39.13 G/DL
  MEAN CORPUSCULAR VOLUME: 62.97 fL
  MONOCYTE: 0.5%
  NEUTROPHIL: 9.83%
  NUCLEATED RED BLOOD CELLS: 0 /100WBC
  PLATELET COUNT: 1204 x10E3/uL
  ALANINE AMINOTRANSFERASE: 59.5 u/L
  ALKALINE PHOSPHATASE: 415.67 u/L
  ASPARTATE AMINOTRANSFERASE: 91.33 u/L
  BLOOD UREA NITROGEN: 17 mg/dL
  CARBON DIOXIDE: 26.33 mmol/L
  CHLORIDE: 104.17 MEQ/L
  CHOLESTEROL: 77 mg/dL
  CREATINE PHOSPHOKINASE: 249.67 u/L
  CREATININE: 0.21 mg/dL
  GLUCOSE: 148.33 mg/dL
  LACTATE DEHYDROGENASE: 168.5 u/L
  LIPASE: 10.17 u/L
  PHOSPHORUS: 12.92 mg/dL
  POTASSIUM: 7.09 MEQ/L
  SODIUM: 148.37 MEQ/L
  TOTAL BILIRUBIN: 0.23 mg/dL
  TOTAL PROTEIN: 6.3 G/DL
  URIC ACID: 1.77 mg/dL
[3]
  ABSOLUTE BASOPHIL: 0 CELLS/uL
  ABSOLUTE EOSINOPHIL: 59.67 CELLS/uL
  ABSOLUTE LYMPHOCYTE: 13145.33 CELLS/uL
  ABSOLUTE MONOCYTE: 145.33 CELLS/uL
  ABSOLUTE SEGMENTED NEUTROPHIL: 1183 CELLS/uL
  BASOPHIL: 0%
  EOSINOPHIL: 0.33%
  ERYTHROCYTE COUNT: 5.58 x10E6/uL
  HEMATOCRIT: 35.93%
  HEMOGLOBIN: 14.03 G/DL
  LEUKOCYTE COUNT: 14.53 x10E3/uL
  LYMPHOCYTE: 90.67%
  MEAN CORPUSCULAR HEMOGLOBIN: 25.13 pg
  MEAN CORPUSCULAR HEMOGLOBIN CONCENTRATION: 39.1 G/DL
  MEAN CORPUSCULAR VOLUME: 64.33 fL
  MONOCYTE: 1%
  NEUTROPHIL: 8%
  NUCLEATED RED BLOOD CELLS: 0 /100WBC
  PLATELET COUNT: 1219 x10E3/uL
  ALANINE AMINOTRANSFERASE: 59.67 u/L
  ALKALINE PHOSPHATASE: 338 u/L
  ASPARTATE AMINOTRANSFERASE: 94.33 u/L
  BLOOD UREA NITROGEN: 15.67 mg/dL
  CARBON DIOXIDE: 24.33 mmol/L
  CHLORIDE: 103.67 MEQ/L
  CHOLESTEROL: 73.67 mg/dL
  CREATINE PHOSPHOKINASE: 320.67 u/L
  CREATININE: 0.17 mg/dL
  GLUCOSE: 162 mg/dL
  LACTATE DEHYDROGENASE: 412.33 u/L
  LIPASE: 11.33 u/L
  PHOSPHORUS: 13.2 mg/dL
  POTASSIUM: 6.69 MEQ/L
  SODIUM: 146.03 MEQ/L
  TOTAL BILIRUBIN: 0.13 mg/dL
  TOTAL PROTEIN: 6.2 G/DL
  URIC ACID: 2.33 mg/dL
